# Where two headings read alike, the source gives them in different places.
# Key:
# [1] = system: TNF-α; experiment: Inhibition of TNF-α production by stimulated human peripheral blood leukocytes in vitro; format: cell-based; conditions: Homo sapiens, Leukocyte, read-out: Percentage of inhibition of TNF-α production
# Summary of the method: (§1)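 Cytokines in supernatants measured by sandwich ELISA after overnight stimulation (2 μg/mL LPS, 1 μg/mL PMA or 120 μg/mL zymosan) of healthy-donor leukocytes pretreated 2 h with 10 or 50 μM compound. Percent inhibition calculated relative to stimulated cells lacking compound.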
# [2] = system: Hep G2; experiment: Cytotoxicity assay (MTT), Hep G2 cell line; format: cell-based; conditions: 24 h
# Summary of the method: (§2)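 Viability was read as MTT-formazan absorbance at 490 nm after 0.5-2 h with reagent. This followed 24 h compound exposure (50 μM, 12.5 μM) at 37° C in RPM medium. Result expressed as OD490 treated over untreated cells ×100.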
# [3] = system: human peripheral blood mononuclear cells (PBMC); experiment: Effects on human T-cell proliferation in vitro (3H-thymidine incorporation); format: cell-based; conditions: Homo sapiens, PBMC, read-out: Percentage of inhibition of proliferation of stimulated PBMC
# Method: The influence of the various test compounds at two different concentrations (50 μM and 10 μM) on cell proliferation of human peripheral blood mononuclear cells (PBMC) was assessed. […] The cells were pulsed with 1 μCi of ^3H-thymidine (Amersham, USA) per well during the last 18 h of the culture, and were harvested on the 96-well filter (Packard Bioscience, USA) using a multiple cell harvester (Packard, USA). The incorporation of ^3H-thymidine in activated cells were measured using TopCount NXT (Packard, USA). […] The positive control refers to LPS-, PMA- or zymosan-stimulated samples that were not treated with test compounds.
# [4] = system: IL-1α; experiment: Inhibition of IL-1 production by stimulated human peripheral blood leukocytes in vitro; format: cell-based; conditions: Homo sapiens, Leukocyte, read-out: Percentage of inhibition of IL-1α production
# [5] = system: A549; experiment: Cytotoxicity assay (MTT), A549 cell line; format: cell-based; conditions: 24 h
# Summary of the method: as §2
# [6] = system: IL-8; experiment: Inhibition of IL-8 production by stimulated human peripheral blood leukocytes in vitro; format: cell-based; conditions: Homo sapiens, Leukocyte, read-out: Percentage of inhibition of IL-8 production
# Summary of the method: as §1
# [7] = system: TNF-α; experiment: Lipopolysaccharide induced TNF-α production in Balb/cJ mice; format: in vivo; conditions: Mus musculus, ip, 1.5 h; 10 mg/kg intraperitoneally, 30 min before LPS; 90 min after LPS; read-out: % inhibition of TNF-α production (plasma)
# [8] = system: IL-6; experiment: Inhibition of IL-6 production by stimulated human peripheral blood leukocytes in vitro; format: cell-based; conditions: Homo sapiens, Leukocyte, read-out: Percentage of inhibition of IL-6 production
# Summary of the method: as §1
compound,measurement,setting,value
"CC[C@H]1OC(=O)[C@H](C)[C@@H](O[C@H]2C[C@@](C)(OC)[C@@H](O)[C@H](C)O2)[C@H](C)[C@@H](O[C@@H]2O[C@H](C)C[C@H](N(C)C)[C@H]2O)[C@](C)(O)C[C@@H](C)CN(C)[C@H](C)[C@@H](O)[C@]1(C)O [azithromycin, reference compound]",inhibition at 10 µM,[1]; LPS-stimulated PBL,36%
same,inhibition at 10 µM,[1]; PMA-stimulated PBL,0%
same,inhibition at 10 µM,[1]; zymosan-stimulated PBL,6%
same,inhibition at 50 µM,[1]; LPS-stimulated PBL,20%
same,inhibition at 50 µM,[1]; PMA-stimulated PBL,0%
same,inhibition at 50 µM,[1]; zymosan-stimulated PBL,64%
same,Percentage of inhibition of cell growth,[2]; 12.5 μM,0%
same,Percentage of inhibition of cell growth,[2]; 50 μM,0%
same,inhibition at 10 µM,[3]; PHA,5%
same,inhibition at 50 µM,[3]; PHA,29%
same,inhibition at 10 µM,[3]; PMA + iono.,9%
same,inhibition at 50 µM,[3]; PMA + iono.,31%
same,inhibition at 10 µM,[4]; LPS-stimulated PBL,28%
same,inhibition at 10 µM,[4]; PMA-stimulated PBL,0%
same,inhibition at 10 µM,[4]; zymosan-stimulated PBL,20%
same,inhibition at 50 µM,[4]; LPS-stimulated PBL,48%
same,inhibition at 50 µM,[4]; PMA-stimulated PBL,0%
same,inhibition at 50 µM,[4]; zymosan-stimulated PBL,75%
same,Percentage of inhibition of cell growth,[5]; 12.5 μM,0%
same,Percentage of inhibition of cell growth,[5]; 50 μM,0%
same,inhibition at 10 µM,[6]; LPS-stimulated PBL,0%
same,inhibition at 10 µM,[6]; PMA-stimulated PBL,0%
same,inhibition at 10 µM,[6]; zymosan-stimulated PBL,0%
same,inhibition at 50 µM,[6]; LPS-stimulated PBL,0%
same,inhibition at 50 µM,[6]; PMA-stimulated PBL,0%
same,inhibition at 50 µM,[6]; zymosan-stimulated PBL,0%
same,inhibition in vivo at 10 mg/kg,[7],54%
same,inhibition at 10 µM,[8]; LPS-stimulated PBL,15%
same,inhibition at 10 µM,[8]; PMA-stimulated PBL,0%
same,inhibition at 10 µM,[8]; zymosan-stimulated PBL,20%
same,inhibition at 50 µM,[8]; LPS-stimulated PBL,40%
same,inhibition at 50 µM,[8]; PMA-stimulated PBL,0%
same,inhibition at 50 µM,[8]; zymosan-stimulated PBL,75%
"CC[C@H]1OC(=O)[C@H](C)C(O[C@H]2C[C@@](C)(OC)[C@@H](OC(=O)CCN(CC)CC)[C@H](C)O2)[C@H](C)[C@@H](O[C@@H]2O[C@H](C)C[C@H](N(C)C)[C@H]2O)[C@](C)(OC)C[C@@H](C)C(=O)[C@H](C)[C@H](O)[C@]1(C)O (some centres unmarked) [Example 49, 4″-O-(3-Diethylamino-propionyl)-6-O-methylerithromycin A]",inhibition at 10 µM,[1]; LPS-stimulated PBL,69%
same,inhibition at 10 µM,[1]; PMA-stimulated PBL,37%
same,inhibition at 10 µM,[1]; zymosan-stimulated PBL,70%
same,inhibition at 50 µM,[1]; LPS-stimulated PBL,91%
same,inhibition at 50 µM,[1]; PMA-stimulated PBL,86%
same,inhibition at 50 µM,[1]; zymosan-stimulated PBL,93%
same,Percentage of inhibition of cell growth,[2]; 12.5 μM,5%
same,Percentage of inhibition of cell growth,[2]; 50 μM,26%
same,inhibition at 10 µM,[3]; PHA,44%
same,inhibition at 50 µM,[3]; PHA,99%
same,inhibition at 10 µM,[3]; PMA + iono.,24%
same,inhibition at 50 µM,[3]; PMA + iono.,100%
same,inhibition at 10 µM,[4]; LPS-stimulated PBL,84%
same,inhibition at 10 µM,[4]; PMA-stimulated PBL,35%
same,inhibition at 10 µM,[4]; zymosan-stimulated PBL,76%
same,inhibition at 50 µM,[4]; LPS-stimulated PBL,86%
same,inhibition at 50 µM,[4]; PMA-stimulated PBL,84%
same,inhibition at 50 µM,[4]; zymosan-stimulated PBL,25%
same,Percentage of inhibition of cell growth,[5]; 12.5 μM,0%
same,Percentage of inhibition of cell growth,[5]; 50 μM,6%
same,inhibition at 10 µM,[6]; LPS-stimulated PBL,44%
same,inhibition at 10 µM,[6]; PMA-stimulated PBL,0%
same,inhibition at 10 µM,[6]; zymosan-stimulated PBL,15%
same,inhibition at 50 µM,[6]; LPS-stimulated PBL,86%
same,inhibition at 50 µM,[6]; PMA-stimulated PBL,95%
same,inhibition at 50 µM,[6]; zymosan-stimulated PBL,54%
same,inhibition in vivo at 10 mg/kg,[7],43%
same,inhibition at 10 µM,[8]; LPS-stimulated PBL,70%
same,inhibition at 10 µM,[8]; PMA-stimulated PBL,76%
same,inhibition at 10 µM,[8]; zymosan-stimulated PBL,76%
same,inhibition at 50 µM,[8]; LPS-stimulated PBL,99%
same,inhibition at 50 µM,[8]; PMA-stimulated PBL,86%
same,inhibition at 50 µM,[8]; zymosan-stimulated PBL,97%
"CC[C@H]1OC(=O)[C@H](C)[C@@H](O[C@H]2C[C@@](C)(OC)[C@@H](O)[C@H](C)O2)[C@H](C)[C@@H](O[C@@H]2O[C@H](C)C[C@H](N(C)C)[C@H]2O)[C@](C)(OC)C[C@@H](C)C(=O)[C@H](C)[C@@H](O)[C@]1(C)O [clarithromycin, reference compound]",inhibition at 10 µM,[1]; LPS-stimulated PBL,0%
same,inhibition at 10 µM,[1]; PMA-stimulated PBL,0%
same,inhibition at 10 µM,[1]; zymosan-stimulated PBL,0%
same,inhibition at 50 µM,[1]; LPS-stimulated PBL,0%
same,inhibition at 50 µM,[1]; PMA-stimulated PBL,0%
same,inhibition at 50 µM,[1]; zymosan-stimulated PBL,0%
same,Percentage of inhibition of cell growth,[2]; 12.5 μM,0%
same,Percentage of inhibition of cell growth,[2]; 50 μM,0%
same,inhibition at 10 µM,[3]; PHA,0%
same,inhibition at 50 µM,[3]; PHA,7%
same,inhibition at 10 µM,[3]; PMA + iono.,9%
same,inhibition at 50 µM,[3]; PMA + iono.,14%
same,inhibition at 10 µM,[4]; LPS-stimulated PBL,0%
same,inhibition at 10 µM,[4]; PMA-stimulated PBL,26%
same,inhibition at 10 µM,[4]; zymosan-stimulated PBL,36%
same,inhibition at 50 µM,[4]; LPS-stimulated PBL,0%
same,inhibition at 50 µM,[4]; PMA-stimulated PBL,33%
same,inhibition at 50 µM,[4]; zymosan-stimulated PBL,59%
same,Percentage of inhibition of cell growth,[5]; 12.5 μM,0%
same,Percentage of inhibition of cell growth,[5]; 50 μM,0%
same,inhibition at 10 µM,[6]; LPS-stimulated PBL,23%
same,inhibition at 10 µM,[6]; PMA-stimulated PBL,33%
same,inhibition at 10 µM,[6]; zymosan-stimulated PBL,0%
same,inhibition at 50 µM,[6]; LPS-stimulated PBL,0%
same,inhibition at 50 µM,[6]; PMA-stimulated PBL,0%
same,inhibition at 50 µM,[6]; zymosan-stimulated PBL,0%
same,inhibition in vivo at 10 mg/kg,[7],63%
same,inhibition at 10 µM,[8]; LPS-stimulated PBL,11%
same,inhibition at 10 µM,[8]; PMA-stimulated PBL,0%
same,inhibition at 10 µM,[8]; zymosan-stimulated PBL,28%
same,inhibition at 50 µM,[8]; LPS-stimulated PBL,0%
same,inhibition at 50 µM,[8]; PMA-stimulated PBL,0%
same,inhibition at 50 µM,[8]; zymosan-stimulated PBL,0%
"CC[C@H]1OC(=O)[C@H](C)[C@@H](O[C@H]2C[C@@](C)(OC)[C@@H](OC(=O)CCN(CC)CC)[C@H](C)O2)[C@H](C)[C@@H](O[C@@H]2O[C@H](C)C[C@H](NC)[C@H]2O)[C@](C)(OC)C[C@@H](C)C(=O)N[C@H](C)[C@@H](O)[C@]1(C)O [Example 54, 3′-N-Demethyl-4″-O-(3-diethylaminopropionyl)-6-O-methyl-9a-aza-9a-homoerythromycin A]",inhibition at 10 µM,[1]; LPS-stimulated PBL,3%
same,inhibition at 10 µM,[1]; PMA-stimulated PBL,25%
same,inhibition at 10 µM,[1]; zymosan-stimulated PBL,11%
same,inhibition at 50 µM,[1]; LPS-stimulated PBL,55%
same,inhibition at 50 µM,[1]; PMA-stimulated PBL,96%
same,inhibition at 50 µM,[1]; zymosan-stimulated PBL,92%
same,Percentage of inhibition of cell growth,[2]; 12.5 μM,1%
same,Percentage of inhibition of cell growth,[2]; 50 μM,2%
same,inhibition at 10 µM,[4]; LPS-stimulated PBL,60%
same,inhibition at 10 µM,[4]; PMA-stimulated PBL,62%
same,inhibition at 10 µM,[4]; zymosan-stimulated PBL,56%
same,inhibition at 50 µM,[4]; LPS-stimulated PBL,69%
same,inhibition at 50 µM,[4]; PMA-stimulated PBL,97%
same,inhibition at 50 µM,[4]; zymosan-stimulated PBL,98%
same,Percentage of inhibition of cell growth,[5]; 12.5 μM,0%
same,Percentage of inhibition of cell growth,[5]; 50 μM,0%
same,inhibition at 10 µM,[6]; LPS-stimulated PBL,0%
same,inhibition at 10 µM,[6]; PMA-stimulated PBL,0%
same,inhibition at 10 µM,[6]; zymosan-stimulated PBL,0%
same,inhibition at 50 µM,[6]; LPS-stimulated PBL,82%
same,inhibition at 50 µM,[6]; PMA-stimulated PBL,40%
same,inhibition at 50 µM,[6]; zymosan-stimulated PBL,53%
same,inhibition in vivo at 10 mg/kg,[7],58%
same,inhibition at 10 µM,[8]; LPS-stimulated PBL,0%
same,inhibition at 10 µM,[8]; PMA-stimulated PBL,0%
same,inhibition at 10 µM,[8]; zymosan-stimulated PBL,9%
same,inhibition at 50 µM,[8]; LPS-stimulated PBL,58%
same,inhibition at 50 µM,[8]; PMA-stimulated PBL,71%
same,inhibition at 50 µM,[8]; zymosan-stimulated PBL,87%

# Reference: patent US8080529B2, “Macrolides with anti-inflammatory activity” (Glaxo Group Limited, priority 2005, dated 2011)
